Ends that are not written are not given here.
What was measured:
[1] = qualitative statement in background; comparison of the 44, 40 and 37 amino acid forms and the free acid; cited from earlier work
[2] = test system: rat pituitary cell cultures; assay: In vitro bioassay in rat pituitary cell cultures with a specific rat growth hormone radioimmunoassay; type: cell-based; settings: relative potency; rat pituitary in vitro bioassay in which the potency of GRF(1-44)-NH2 standard is 1.00; enzymatically prepared product of Example 1
Description: All amino acid derivatives were of the L-configuration and purchased from Bachem (Torrance, Calif.). Porcine trypsin (Sigma, Type IX) was assayed against N^α benzoyl-L-arginine ethyl ester (BAEE) and the specific activity determined to be 1.85×10^4 U/mg. It was treated with N-tosyl-L-phenylalaninechloromethylketone (TPCK) [G. Schoellman and E. Shaw, Biochemistry, 2, 252 ([…])] and dialyzed extensively against distilled water and lyophilized to give 2.02×10^4 U/mg. N,N-Dimethylacetamide (Kodak, Spectro Grade) and 1,4-butanediol (Sigma, Gold Label) were dried over 3A sieves. Tryptic digests were carried out in solutions of the peptide (1 mg/mL) and bovine trypsin (Millipore, 0.1 mg/mL) in 0.5M NH4 HCO3 (pH 8.0) for 20 hours. All pH measurements were made with a glass electrode. In vitro bioassays were done in rat pituitary cell cultures and using a specific rat growth hormone radioimmunoassay as previously described (P. Brazeau et al., Proc. Natl. Acad. Sci. USA, 79, 7909 (1982). GRF(1-43)-OH was prepared by solid-phase synthesis as follows:
The final yield of GRF(1-44)-NH2 was 1.95 mg ([…], 37%). FAB-MS: (M+H)^+ Calc: 5040.7, Found: 5040.5. Amino Acid Anal (6M HCl; 110° C., 72 h.): Asp, 4.12(4); Thr, 0.97(1); Ser, 3.65(4); Glu, 7.54(7); Gly, 2.99(3); Ala, 5.27(5); Val, 1.04(1); Met, 0.92(1); Ile, 2.01(2); Leu, 5.13(5); Tyr, 1.87(2); Phe, 0.91(1); Lys, 2.03(2); Arg, 5.54(6). […]

| Substance | Level of activity / potency among GRF forms [1] | In vitro biological potency [2] |
| --- | --- | --- |
| GRF(1-40)-OH (YADAIFTNSYRKVLGQLSARKLLQDIMSRQQGESNQERGA-OH; UniProt P01286 32-71, looked up, fragment) [free acid form of Growth Hormone Releasing Factor mentioned in the background, reference compound] | substantially lower level of activity | – |
| GRF(1-44)-NH2 | full intrinsic activity and highest potency | 0.92±0.22 |
